In patent US20190070165A1, “N-HYDROXYISOQUINOLINEDIONE INHIBITORS OF HBV REPLICATION” (Saint Louis University, priority 2016, published 2019):
Read-outs that look alike come from different tables or passages of the source.

Key:
[1] = MTS cytotoxicity assay (CellTiter 96); details: human
Description: HepDES19 cells were seeded at 1×10^4 cells per well in a 96 well plate in the absence of tetracycline. The test compounds were applied in triplicate to the cells 48 hours later and the cells were incubated for 72 hours. Cell viability was measured using the CellTiter 96 Aqueous Non-Radioactive Cell Proliferation Assay (Promega). [3-(4,5-dimethylthiazol-2-yl)-5-(3-carboxymethoxyphenyl)-2-(4-sulfophenyl)-2H-tetrazolium, inner salt] (MTS) and phenazine methosulfate (PMS) solution at 2 mg/mL MTS and 0.043 mg/mL PMS were added to the medium, the cells were incubated for two hours at 37° C., and absorbance was measured at 490 nm. […] Neutral red was added to the media at a final concentration of 40 μg/mL. Cells were washed with PBS and incubated with neutral red medium for two hours at 37° C. The neutral red medium was removed and the cells were washed with PBS. […] Lactate dehydrogenase (LDH) release was measured using the LDH-cytotoxicity colorimetric assay kit (BioVision). Cells were lysed with 1% Triton-X to provide the high control and DMSO vehicle treatment was the low control. Supernatants were collected and transferred to a fresh 96 well plate, and LDH reaction mixture containing the catalyst and dye solution was added. The reaction was incubated for 15-20 minutes at room temperature in a dark box and absorbance was measured at 490 nm. Percent cytotoxicity was calculated as [(test sample−low control)/([…])]×100.

HBV RNaseH [2] = target: T1, HBV RNaseH (Hepatitis B virus genotype D subtype ayw, UniProt P03156)
HSV-1 = HSV-1 replication inhibition assay in Vero cells; type: cell-based, herpes simplex virus 1; details: Human alphaherpesvirus 1, 24 h; 5 μM, Vero cells; read-out: HSV-1 suppression (log10 at 5 μM), class symbol
[3] = Stability in mouse liver microsomes; type: in vitro ADME
human RNaseH1 = target: T2, human RNaseH1 (Homo sapiens, UniProt O60930); assay: Oligonucleotide-directed RNA cleavage assay, human RNaseH1; type: biochemical; details: compounds at 100, 60 and 20 μM
T2 construct: made in house; host or cells: E. coli
T2 sequence (O60930 1-286): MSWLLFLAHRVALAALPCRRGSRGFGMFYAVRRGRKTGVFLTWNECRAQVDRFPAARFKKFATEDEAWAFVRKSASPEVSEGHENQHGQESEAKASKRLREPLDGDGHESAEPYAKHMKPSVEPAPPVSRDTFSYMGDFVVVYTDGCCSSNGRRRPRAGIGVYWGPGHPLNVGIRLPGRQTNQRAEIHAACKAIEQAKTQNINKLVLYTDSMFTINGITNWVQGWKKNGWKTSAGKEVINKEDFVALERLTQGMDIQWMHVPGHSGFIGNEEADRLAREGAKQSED
From the text: RNaseH expression and purification.
Oligonucleotide-directed RNA cleavage assay.

HBV RNaseH [4] = target: T1, HBV RNaseH; assay: Molecular beacon RNaseH assay
Description: In this assay, a hairpin DNA oligonucleotide labeled with fluorescein on one end and a quencher on the other is held in a linear conformation by annealing to a complementary RNA; cleavage of the RNA causes the DNA to fold into a hairpin, suppressing fluorescence (FIG. 8A).
The substrate is a hairpin DNA oligonucleotide with a 5′ fluorescein reporter and a 3′ black hole quencher annealed to a complementary RNA oligonucleotide. The reaction was initiated by adding 5 mM Mg^++, and fluorescence was monitored at 37° C. with a Synergy 4 96-well plate reader. Inhibition was qualitatively determined as a dose-dependent reduction in the rate of substrate degradation.

[5] = Lactate dehydrogenase (LDH) release cytotoxicity assay; type: cell-based; details: human, HepDES19 cells, read-out: Toxicity in HepDES19, LDH (CC50)
Description: (§1) To further evaluate potential cytotoxicity of these hits, the effect of the compounds was determined for the uptake of neutral red (NR) by the lysosomes and lactate dehydrogenase (LDH) release into the supernatant due to cell membrane permeability. […] Overall, the TI values in Table 3 and FIG. 4 indicate that cytotoxicity was not the cause of antiviral efficacy, although it may have contributed to the apparent efficacy for #84, 85, 90, and 91, which all have TI values below 5.

HBV replication = HBV replication inhibition assay in HepDES19 cells (strand-preferential q-PCR); type: cell-based, Hepatitis B virus; details: Hepatitis B virus
[6] = Neutral red (NR) cytotoxicity assay; type: cell-based; details: human, HepDES19 cells, read-out: Toxicity in HepDES19, NR (CC50)
Description: as §1

HBV infections = details: cited from earlier work

T1 sequence (P03156 671-832): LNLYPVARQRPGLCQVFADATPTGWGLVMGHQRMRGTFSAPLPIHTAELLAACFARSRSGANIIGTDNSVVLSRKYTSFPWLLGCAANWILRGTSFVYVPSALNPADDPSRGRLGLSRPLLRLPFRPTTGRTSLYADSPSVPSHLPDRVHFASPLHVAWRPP

| Molecule | CC50 at 72 h [1] | Inhibition of HBV RNaseH, Oligonucleotide directed cleavage assay (HBV RNaseH [2]; Table 3, compounds at 100, 60 and 20 μM, compounds 1-91 and 138-140 previously reported (Cai et al., 2014)) | inhibition of RNA cleavage by HBV RNaseH (HBV RNaseH [2]; compounds at 100, 60 and 20 μM) | log reduction at 5 µM (HSV-1) | stability in mouse liver microsomes [3] | inhibition of huRNaseH1 (human RNaseH1) | inhibition in the molecular beacon assay (HBV RNaseH [4]; 2.1 μg purified HBV RNaseH) | Inhibition of HBV RNaseH, Molecular Beacon cleavage assay (HBV RNaseH [4]; Table 3, 0 to 500 μM) | CC50 at 72 h [5] | EC50 (HBV replication; HepDES19, read-out: EC50, HBV replication) | EC50 (HBV replication; HepDES19, read-out: HBV replication inhibition (EC50, μm)) | CC50 at 72 h [6] | patients with sustained clinical improvement (HBV infections) |
| --- | --- | --- | --- | --- | --- | --- | --- | --- | --- | --- | --- | --- | --- |
| C/C(=N\c1ccccc1NO)c1c(C)cc(=O)n(O)c1O [Compound 208] | 15 ± 7 µM | + (Dose-dependent inhibition at ≤100 μM) | inhibited RNA cleavage by the HBV RNaseH | < 1 | stable | did not inhibit the huRNaseH1 at 100 μM | inhibited | + (Dose-dependent inhibition at ≤500 μM) | 12 ± 0.1 µM | 0.69 µM | 0.69 ± 0.2 µM | 13 ± 1 µM |  |
| Interferon α |  |  |  |  |  |  |  |  |  |  |  |  | 20-30% |
